Laboratory results: patent US8183351B2, “Avermectin derivatives” (Bayer Cropscience AG, priority 2006, dated 2012)

Experiments:
[1] = tested on: larvae of the mustard beetle (Phaedon cochleariae); assay: Phaedon test (PHAECO spray treatment); assay type: in vivo; conditions: Example G; 4 ppm active compound; sprayed Chinese cabbage discs
Protocol: Phaedon Test (PHAECO Spray Treatment)
• Solvents: 78 parts by weight of acetone • 1.5 parts by weight of dimethylformamide • Emulsifier: 0.5 part by weight of alkylaryl polyglyycol ether
After the desired period of time, the effect in % is determined. 100% means that all beetle larvae have been killed; 0% means that none of the beetle larvae have been killed.

[2] = tested on: caterpillars of the army worm (Spodoptera frugiperda); assay: Spodoptera frugiperda test (SPODFR spray treatment); assay type: in vivo; conditions: Example I; 4 ppm active compound; sprayed maize leaf discs
Protocol: Spodoptera frugiperda Test (SPODFR Spray Treatment)
• Solvents: 78.0 parts by weight of acetone • 1.5 parts by weight of dimethylformamide • Emulsifier: 0.5 part by weight of alkylaryl polyglyycol ether
After the desired period of time, the effect in % is determined. 100% means that all caterpillars have been killed; 0% means that none of the caterpillars have been killed.

Row | SMILES | Kill rate in % after 7 days [1] | Kill rate in % after 5 days [2]
1 | CC[C@H](C)[C@H]1OC2(C=C[C@@H]1C)C[C@@H]1C[C@@H](C/C=C(\C)[C@@H](OC3CC(OC)C(OC(=O)CN4C(=O)CCC4=O)C(C)O3)[C@@H](C)/C=C/C=C3\CO[C@@H]4[C@H](O)C(C)=CC(C(=O)O1)[C@]34O)O2 (stereo partly drawn) [Example 45] | 100% | 100%
2 | CC[C@H](C)[C@H]1OC2(C=C[C@@H]1C)C[C@@H]1C[C@@H](C/C=C(\C)[C@@H](OC3CC(OC)C(OC(=O)C4(F)CC4)C(C)O3)[C@@H](C)/C=C/C=C3\CO[C@@H]4[C@H](O)C(C)=CC(C(=O)O1)[C@]34O)O2 (stereo partly drawn) [Example 36] | 100% | 83%
3 | CCCCC(=O)OC1C(C)OC(O[C@@H]2/C(C)=C/C[C@@H]3C[C@@H](CC4(C=C[C@H](C)[C@@H]([C@@H](C)CC)O4)O3)OC(=O)C3C=C(C)[C@@H](O)[C@H]4OC/C(=C\C=C\[C@@H]2C)[C@@]34O)CC1OC (stereo partly drawn) [Example 29] | 100% | 100%
4 | CC[C@H](C)[C@H]1OC2(C=C[C@@H]1C)C[C@@H]1C[C@@H](C/C=C(\C)[C@@H](OC3CC(OC)C(OC(=O)C(C)N4CCOCC4)C(C)O3)[C@@H](C)/C=C/C=C3\CO[C@@H]4[C@H](O)C(C)=CC(C(=O)O1)[C@]34O)O2.O=C(O)c1ccccc1 (stereo partly drawn) [Example 106, 4′-O-(2-Morpholin-4-ylpropanoyl)-avermectin B1 monosaccharide benzoate] | 100% | 100%
5 | CN(C)C1(C)CC1 [Example 74] | 100% | 100%
6 | CC[C@H](C)[C@H]1OC2(C=C[C@@H]1C)C[C@@H]1C[C@@H](C/C=C(\C)[C@@H](OC3CC(OC)C(OC(=O)CN4CCSCC4)C(C)O3)[C@@H](C)/C=C/C=C3\CO[C@@H]4[C@H](O)C(C)=CC(C(=O)O1)[C@]34O)O2 (stereo partly drawn) [Example 80] | 100% | 100%
7 | CCC(C)C1OC2(C=CC1C)CC1CC(CC=C(C)C(OC3CC(OC)C(OC(=O)C(C)NC(=O)OC(C)(C)C)C(C)O3)C(C)C=CC=C3COC4C(O)C(C)=CC(C(=O)O1)C34O)O2 (stereo not drawn) [Example 40] | 100% | 100%
8 | CC[C@H](C)[C@H]1OC2(C=C[C@@H]1C)C[C@@H]1C[C@@H](C/C=C(\C)[C@@H](OC3CC(OC)C(OC(=O)CN4CCN(C)CC4)C(C)O3)[C@@H](C)/C=C/C=C3\CO[C@@H]4[C@H](O)C(C)=CC(C(=O)O1)[C@]34O)O2 (stereo partly drawn) [Example 76] | 100% | 100%
9 | CC[C@H](C)[C@H]1OC2(C=C[C@@H]1C)C[C@@H]1C[C@@H](C/C=C(\C)[C@@H](OC3CC(OC)C(OC(=O)Cn4cnnn4)C(C)O3)[C@@H](C)/C=C/C=C3\CO[C@@H]4[C@H](O)C(C)=CC(C(=O)O1)[C@]34O)O2 (stereo partly drawn) [Example 42] | 83% | 100%
10 | CC[C@H](C)[C@H]1OC2(C=C[C@@H]1C)C[C@@H]1C[C@@H](C/C=C(\C)[C@@H](OC3CC(OC)C(OC(=O)CC4C(=O)NCCN4C)C(C)O3)[C@@H](C)/C=C/C=C3\CO[C@@H]4[C@H](O)C(C)=CC(C(=O)O1)[C@]34O)O2 (stereo partly drawn) [Example 85] | 83% | 100%
11 | CC[C@H](C)[C@H]1OC2(C=C[C@@H]1C)C[C@@H]1C[C@@H](C/C=C(\C)[C@@H](OC3CC(OC)C(OC(=O)Cn4cncn4)C(C)O3)[C@@H](C)/C=C/C=C3\CO[C@@H]4[C@H](O)C(C)=CC(C(=O)O1)[C@]34O)O2 (stereo partly drawn) [Example 32] | 100% | 100%
12 | CC[C@H](C)[C@H]1OC2(C=C[C@@H]1C)C[C@@H]1C[C@@H](C/C=C(\C)[C@@H](OC3CC(OC)C(OC(=O)Cc4cccn4C)C(C)O3)[C@@H](C)/C=C/C=C3\CO[C@@H]4[C@H](O)C(C)=CC(C(=O)O1)[C@]34O)O2 (stereo partly drawn) [Example 71] | 100% | 100%
13 | CC[C@H](C)[C@H]1OC2(C=C[C@@H]1C)C[C@@H]1C[C@@H](C/C=C(\C)[C@@H](OC3CC(OC)C(OC(=O)CCN4CCCCC4)C(C)O3)[C@@H](C)/C=C/C=C3\CO[C@@H]4[C@H](O)C(C)=CC(C(=O)O1)[C@]34O)O2 (stereo partly drawn) [Example 87] | 100% | 100%
14 | CC[C@H](C)[C@H]1OC2(C=C[C@@H]1C)C[C@@H]1C[C@@H](C/C=C(\C)[C@@H](OC3CC(OC)C(OC(=O)CCN4CCOCC4)C(C)O3)[C@@H](C)/C=C/C=C3\CO[C@@H]4[C@H](O)C(C)=CC(C(=O)O1)[C@]34O)O2 (stereo partly drawn) [Example 83] | 100% | 100%
15 | CC[C@H](C)[C@H]1OC2(C=C[C@@H]1C)C[C@@H]1C[C@@H](C/C=C(\C)[C@@H](OC3CC(OC)C(OC(=O)CN4CCNCC4)C(C)O3)[C@@H](C)/C=C/C=C3\CO[C@@H]4[C@H](O)C(C)=CC(C(=O)O1)[C@]34O)O2.O=C(O)c1ccccc1.O=C(O)c1ccccc1 (stereo partly drawn) [Example 107, 4′-O-(piperazin-1-ylacetyl)-avermectin B1 monosaccharide dibenzoate] | 100% | 100%
16 | CC[C@H](C)[C@H]1OC2(C=C[C@@H]1C)C[C@@H]1C[C@@H](C/C=C(\C)[C@@H](OC3CC(OC)C(OC(=O)C4CCCN(C)C4)C(C)O3)[C@@H](C)/C=C/C=C3\CO[C@@H]4[C@H](O)C(C)=CC(C(=O)O1)[C@]34O)O2 (stereo partly drawn) [Example 84] | 100% | 100%
17 | CC[C@H](C)[C@H]1OC2(C=C[C@@H]1C)C[C@@H]1C[C@@H](C/C=C(\C)[C@@H](OC3CC(OC)C(OC(=O)CCN4CCN(C)CC4)C(C)O3)[C@@H](C)/C=C/C=C3\CO[C@@H]4[C@H](O)C(C)=CC(C(=O)O1)[C@]34O)O2 (stereo partly drawn) [Example 88] | 100% | 100%
18 | CCC(C)C1OC2(C=CC1C)CC1CC(CC=C(C)C(OC3CC(OC)C(OC(=O)C(C)N(C)C)C(C)O3)C(C)C=CC=C3COC4C(O)C(C)=CC(C(=O)O1)C34O)O2 (stereo not drawn) [Example 81] | 100% | 100%
19 | CC[C@H](C)[C@H]1OC2(C=C[C@@H]1C)C[C@@H]1C[C@@H](C/C=C(\C)[C@@H](OC3CC(OC)C(OC(=O)C(C)C#N)C(C)O3)[C@@H](C)/C=C/C=C3\CO[C@@H]4[C@H](O)C(C)=CC(C(=O)O1)[C@]34O)O2 (stereo partly drawn) [Example 72] | 100% | 100%
20 | CC[C@H](C)[C@H]1OC2(C=C[C@@H]1C)C[C@@H]1C[C@@H](C/C=C(\C)[C@@H](OC3CC(OC)C(OC(=O)C(C)N4CCNCC4)C(C)O3)[C@@H](C)/C=C/C=C3\CO[C@@H]4[C@H](O)C(C)=CC(C(=O)O1)[C@]34O)O2 (stereo partly drawn) [Example 105] | 100% | 100%
21 | CC[C@H](C)[C@H]1OC2(C=C[C@@H]1C)C[C@@H]1C[C@@H](C/C=C(\C)[C@@H](OC3CC(OC)C(OC(=O)CN4CCOCC4=O)C(C)O3)[C@@H](C)/C=C/C=C3\CO[C@@H]4[C@H](O)C(C)=CC(C(=O)O1)[C@]34O)O2 (stereo partly drawn) [Example 75] | 100% | 100%
22 | CC[C@H](C)[C@H]1OC2(C=C[C@@H]1C)C[C@@H]1C[C@@H](C/C=C(\C)[C@@H](OC3CC(OC)C(OC(=O)Cn4ccc(C(F)(F)F)n4)C(C)O3)[C@@H](C)/C=C/C=C3\CO[C@@H]4[C@H](O)C(C)=CC(C(=O)O1)[C@]34O)O2 (stereo partly drawn) [Example 59] | 100% | 100%
23 | CC[C@H](C)[C@H]1OC2(C=C[C@@H]1C)C[C@@H]1C[C@@H](C/C=C(\C)[C@@H](OC3CC(OC)C(OC(=O)Cc4cccnc4)C(C)O3)[C@@H](C)/C=C/C=C3\CO[C@@H]4[C@H](O)C(C)=CC(C(=O)O1)[C@]34O)O2 (stereo partly drawn) [Example 33] | 100% | 100%
24 | CC[C@H](C)[C@H]1OC2(C=C[C@@H]1C)C[C@@H]1C[C@@H](C/C=C(\C)[C@@H](OC3CC(OC)C(OC(=O)C(C)c4ccc(Cl)nc4)C(C)O3)[C@@H](C)/C=C/C=C3\CO[C@@H]4[C@H](O)C(C)=CC(C(=O)O1)[C@]34O)O2 (stereo partly drawn) [Example 69] | 100% | 100%
25 | CC[C@H](C)[C@H]1OC2(C=C[C@@H]1C)C[C@@H]1C[C@@H](C/C=C(\C)[C@@H](OC3CC(OC)C(OC(=O)C(C)CN(C)C)C(C)O3)[C@@H](C)/C=C/C=C3\CO[C@@H]4[C@H](O)C(C)=CC(C(=O)O1)[C@]34O)O2 (stereo partly drawn) [Example 82] | 100% | 100%
26 | CC[C@H](C)[C@H]1OC2(C=C[C@@H]1C)C[C@@H]1C[C@@H](C/C=C(\C)[C@@H](OC3CC(OC)C(OC(=O)Cc4nc(C)sc4C)C(C)O3)[C@@H](C)/C=C/C=C3\CO[C@@H]4[C@H](O)C(C)=CC(C(=O)O1)[C@]34O)O2 (stereo partly drawn) [Example 47] | – | 100%
